Reference: the OligoGym collection
HELM strings list units from the 5' end as sugar, base in round brackets, then linkage (d deoxyribose, r ribose, m 2'-O-methyl, p phosphodiester). Strings are as the collection lists them; they lack the last nucleoside at the 3' end of the tested compound. [moe] = 2'-O-(2-methoxyethyl) (MOE); [sp] = phosphorothioate linkage; [m5C] = 5-methylcytosine

Biological target: GFAP
Assay: mouse, dose not given
Conditions: ASO

In order of falling 3 h FOB score:
1. RNA1{[moe](A)[sp].[moe](G)p.[moe](T)p.[moe](G)p.[moe](A)[sp].d([m5C])[sp].d([m5C])[sp].d(T)[sp].d(G)[sp].d(T)[sp].d(G)[sp].d(A)[sp].d([m5C])[sp].d(T)[sp].d(A)[sp].[moe](T)p.[moe]([m5C])p.[moe](T)[sp].[moe](A)}$$$$ (last 3' nucleoside missing)  6 score 0-7
2. RNA1{[moe](G)[sp].[moe](G)p.[moe](A)p.[moe](G)p.[moe](G)[sp].d(G)[sp].d(T)[sp].d(G)[sp].d(A)[sp].d([m5C])[sp].d([m5C])[sp].d([m5C])[sp].d(A)[sp].d(A)[sp].d(G)[sp].[moe](T)p.[moe]([m5C])p.[moe]([m5C])[sp].[moe](T)}$$$$ (last 3' nucleoside missing)  4 score 0-7
3. RNA1{[moe](T)[sp].[moe](G)p.[moe](T)p.[moe](G)p.[moe](T)p.d(A)[sp].d(T)[sp].d(T)[sp].d(A)[sp].d(G)[sp].d(G)[sp].d(A)[sp].d(T)[sp].d([m5C])[sp].d([m5C])[sp].[moe]([m5C])p.[moe](A)p.[moe](T)[sp].[moe]([m5C])}$$$$ (last 3' nucleoside missing)  3 score 0-7
4. RNA1{[moe](A)[sp].[moe](T)p.[moe](T)p.[moe](T)p.d(G)[sp].d(G)[sp].d([m5C])[sp].d(A)[sp].d(G)[sp].d(T)[sp].d(A)[sp].d(T)[sp].d(T)[sp].d(A)[sp].[moe]([m5C])p.[moe]([m5C])p.[moe](T)p.[moe]([m5C])[sp].[moe](T)}$$$$ (last 3' nucleoside missing)  3 score 0-7
5. RNA1{[moe](T)[sp].[moe](G)p.[moe](T)p.[moe](A)p.d(T)[sp].d(T)[sp].d(A)[sp].d(G)[sp].d(G)[sp].d(A)[sp].d(T)[sp].d([m5C])[sp].d([m5C])[sp].d([m5C])[sp].[moe](A)p.[moe](T)p.[moe]([m5C])p.[moe](T)[sp].[moe](A)}$$$$ (last 3' nucleoside missing)  3 score 0-7
6. RNA1{[moe](T)[sp].[moe](A)p.[moe](G)p.[moe](T)p.d([m5C])[sp].d(A)[sp].d(G)[sp].d([m5C])[sp].d([m5C])[sp].d(T)[sp].d(G)[sp].d(G)[sp].d(T)[sp].d(T)[sp].[moe](A)p.[moe](G)p.[moe]([m5C])p.[moe]([m5C])[sp].[moe](T)}$$$$ (last 3' nucleoside missing)  3 score 0-7
7. RNA1{[moe](A)[sp].[moe](T)p.[moe](T)p.[moe](T)p.d(A)[sp].d(T)[sp].d([m5C])[sp].d(T)[sp].d(G)[sp].d(T)[sp].d(G)[sp].d([m5C])[sp].d(T)[sp].d(T)[sp].[moe](T)p.[moe](A)p.[moe](G)p.[moe](T)[sp].[moe](G)}$$$$ (last 3' nucleoside missing)  2 score 0-7
8. RNA1{[moe](A)[sp].[moe](A)p.[moe](A)p.[moe](G)p.[moe](G)p.[moe]([m5C])p.d(A)[sp].d([m5C])[sp].d(A)[sp].d(G)[sp].d(T)[sp].d(T)[sp].d([m5C])[sp].d([m5C])[sp].d([m5C])[sp].d(A)[sp].[moe](G)p.[moe](A)[sp].[moe](T)}$$$$ (last 3' nucleoside missing)  2 score 0-7
9. RNA1{[moe]([m5C])[sp].[moe]([m5C])p.[moe]([m5C])p.[moe]([m5C])p.[moe](T)[sp].d(T)[sp].d(T)[sp].d([m5C])[sp].d(T)[sp].d([m5C])[sp].d(T)[sp].d([m5C])[sp].d([m5C])[sp].d(T)[sp].d(G)[sp].[moe](T)p.[moe](T)p.[moe](T)[sp].[moe]([m5C])}$$$$ (last 3' nucleoside missing)  2 score 0-7
10. RNA1{[moe](A)[sp].[moe](G)p.[moe](T)p.[moe]([m5C])p.[moe](A)[sp].d(G)[sp].d([m5C])[sp].d([m5C])[sp].d(T)[sp].d(G)[sp].d(G)[sp].d(T)[sp].d(T)[sp].[moe](A)p.[moe](G)p.[moe]([m5C])[sp].[moe]([m5C])}$$$$ (last 3' nucleoside missing)  2 score 0-7
11. RNA1{[moe]([m5C])[sp].[moe](A)p.[moe](G)p.[moe]([m5C])p.[moe](A)[sp].d(T)[sp].d(T)[sp].d(T)[sp].d(G)[sp].d(T)[sp].d([m5C])[sp].d(T)[sp].d(T)[sp].d(T)[sp].d(A)[sp].[moe](T)p.[moe](T)p.[moe](T)[sp].[moe](T)}$$$$ (last 3' nucleoside missing)  2 score 0-7
12. RNA1{[moe]([m5C])[sp].[moe](T)p.[moe]([m5C])p.[moe](A)p.[moe](G)p.[moe](T)p.d(T)[sp].d(T)[sp].d(T)[sp].d([m5C])[sp].d([m5C])[sp].d(T)[sp].d([m5C])[sp].d([m5C])[sp].d(A)[sp].d(G)[sp].[moe]([m5C])p.[moe](A)[sp].[moe](G)}$$$$ (last 3' nucleoside missing)  2 score 0-7
13. RNA1{[moe](T)[sp].[moe](T)p.[moe](T)p.[moe](A)p.[moe](T)[sp].d(T)[sp].d(T)[sp].d(T)[sp].d(T)[sp].d([m5C])[sp].d([m5C])[sp].d(T)[sp].d([m5C])[sp].d(A)[sp].d(G)[sp].[moe]([m5C])p.[moe](G)p.[moe](A)[sp].[moe]([m5C])}$$$$ (last 3' nucleoside missing)  2 score 0-7
14. RNA1{[moe](T)[sp].[moe](T)p.[moe](G)p.[moe](G)p.d([m5C])[sp].d(A)[sp].d(G)[sp].d(T)[sp].d(A)[sp].d(T)[sp].d(T)[sp].d(A)[sp].d([m5C])[sp].d([m5C])[sp].[moe](T)p.[moe]([m5C])p.[moe](T)p.[moe](A)[sp].[moe]([m5C])}$$$$ (last 3' nucleoside missing)  1 score 0-7
15. RNA1{[moe](T)[sp].[moe](T)p.[moe](G)p.[moe](G)p.d(T)[sp].d(G)[sp].d([m5C])[sp].d(T)[sp].d(T)[sp].d(T)[sp].d(T)[sp].d(G)[sp].d([m5C])[sp].d([m5C])[sp].[moe]([m5C])p.[moe]([m5C])p.[moe]([m5C])p.[moe](T)[sp].[moe](G)}$$$$ (last 3' nucleoside missing)  1 score 0-7
16. RNA1{[moe](T)[sp].[moe](G)p.[moe](G)p.[moe](T)p.[moe](G)p.[moe]([m5C])p.d(T)[sp].d(T)[sp].d(T)[sp].d(T)[sp].d(G)[sp].d([m5C])[sp].d([m5C])[sp].d([m5C])[sp].d([m5C])[sp].d([m5C])[sp].[moe](T)p.[moe](G)[sp].[moe](T)}$$$$ (last 3' nucleoside missing)  1 score 0-7
17. RNA1{[moe](G)[sp].[moe](G)p.[moe](T)p.[moe]([m5C])p.[moe]([m5C])p.d(T)[sp].d(A)[sp].d(A)[sp].d(A)[sp].d(T)[sp].d(A)[sp].d(T)[sp].d(T)[sp].d([m5C])[sp].d(T)[sp].[moe](A)p.[moe](G)p.[moe](T)[sp].[moe]([m5C])}$$$$ (last 3' nucleoside missing)  1 score 0-7
18. RNA1{[moe](T)[sp].[moe](G)p.[moe](G)p.[moe](T)p.d(G)[sp].d([m5C])[sp].d(T)[sp].d(T)[sp].d(T)[sp].d(T)[sp].d(G)[sp].d([m5C])[sp].d([m5C])[sp].d([m5C])[sp].[moe]([m5C])p.[moe]([m5C])p.[moe](T)p.[moe](G)[sp].[moe](T)}$$$$ (last 3' nucleoside missing)  1 score 0-7
19. RNA1{[moe](T)[sp].[moe](T)p.[moe](G)p.[moe](T)p.d(G)[sp].d(A)[sp].d(T)[sp].d(T)[sp].d(T)[sp].d(T)[sp].d([m5C])[sp].d([m5C])[sp].d([m5C])[sp].d([m5C])[sp].[moe](G)p.[moe](T)p.[moe]([m5C])p.[moe](T)[sp].[moe](T)}$$$$ (last 3' nucleoside missing)  0 score 0-7
20. RNA1{[moe]([m5C])[sp].[moe](A)p.[moe]([m5C])p.[moe](A)p.d(T)[sp].d(T)[sp].d([m5C])[sp].d(A)[sp].d([m5C])[sp].d(T)[sp].d(A)[sp].d(A)[sp].d(T)[sp].d(A)[sp].[moe](T)p.[moe](T)p.[moe](T)p.[moe](A)[sp].[moe](A)}$$$$ (last 3' nucleoside missing)  0 score 0-7
21. RNA1{[moe](T)[sp].[moe](T)p.[moe](T)p.[moe](G)p.[moe](G)p.[moe]([m5C])p.d(A)[sp].d(G)[sp].d(T)[sp].d(A)[sp].d(T)[sp].d(T)[sp].d(A)[sp].d([m5C])[sp].d([m5C])[sp].d(T)[sp].[moe]([m5C])p.[moe](T)[sp].[moe](A)}$$$$ (last 3' nucleoside missing)  0 score 0-7
22. RNA1{[moe](G)[sp].[moe](T)p.[moe]([m5C])p.[moe](A)p.[moe]([m5C])p.d(A)[sp].d(T)[sp].d(T)[sp].d([m5C])[sp].d(A)[sp].d([m5C])[sp].d(T)[sp].d(A)[sp].d(A)[sp].d(T)[sp].[moe](A)p.[moe](T)p.[moe](T)[sp].[moe](T)}$$$$ (last 3' nucleoside missing)  0 score 0-7
23. RNA1{[moe](G)[sp].[moe](G)p.[moe]([m5C])p.[moe](A)p.[moe](A)[sp].d([m5C])[sp].d(A)[sp].d(G)[sp].d(T)[sp].d(T)[sp].d(T)[sp].d([m5C])[sp].d([m5C])[sp].d(A)[sp].d(T)[sp].[moe](A)p.[moe](A)p.[moe]([m5C])[sp].[moe](A)}$$$$ (last 3' nucleoside missing)  0 score 0-7
24. RNA1{[moe](T)[sp].[moe](G)p.[moe](A)p.[moe](G)p.[moe](T)[sp].d([m5C])[sp].d(T)[sp].d([m5C])[sp].d(A)[sp].d(G)[sp].d(T)[sp].d(T)[sp].d(T)[sp].d(T)[sp].d([m5C])[sp].[moe]([m5C])p.[moe](T)p.[moe]([m5C])[sp].[moe]([m5C])}$$$$ (last 3' nucleoside missing)  0 score 0-7
25. RNA1{[moe]([m5C])[sp].[moe](T)p.[moe](T)p.[moe](T)p.[moe](T)p.d(G)[sp].d(A)[sp].d(G)[sp].d(A)[sp].d(T)[sp].d(A)[sp].d(T)[sp].d([m5C])[sp].d(T)[sp].d(T)[sp].[moe](G)p.[moe](T)p.[moe](G)[sp].[moe](A)}$$$$ (last 3' nucleoside missing)  0 score 0-7
26. RNA1{[moe]([m5C])[sp].[moe](A)p.[moe](G)p.[moe](T)p.[moe](A)p.[moe](T)p.d(T)[sp].d(A)[sp].d([m5C])[sp].d([m5C])[sp].d(T)[sp].d([m5C])[sp].d(T)[sp].d(A)[sp].d([m5C])[sp].d(T)[sp].[moe](A)p.[moe](G)[sp].[moe](T)}$$$$ (last 3' nucleoside missing)  0 score 0-7
